Key:
[1] = tested on: Cleaved caspase 3; assay: Immunohistochemistry of Cleaved caspase 3 in vascular tissue around the fistula; type: in vivo, rat; details: 1 mg/kg/day i.p., vs DM group (FIG. 13)
[2] = tested on: diabetic AVF rats; assay: Hematoxylin-eosin staining of vascular tissue at AVF anastomosis; type: in vivo, rat; details: HE staining at AVF anastomosis, 1 mg/kg/day i.p., vs DM group (FIG. 12)
Procedure: (§1) The paraffin-embedded tissue sections were stained with HE. Blood vessel tissue samples were dewaxed and rehydrated, and antigen retrieval and IHC staining were carried out. Tissue sections were blocked at room temperature for at least 1 hour and incubated overnight with antibodies of TNF-α, MCP1, IL-6, and SMO at 4° C. After careful cleaning, tissue sections were detected using a DAB-HRP method and observed with a microscope. Quantitative analysis was carried out according to the percentage of […] cells and the staining intensity.
(§2) Male SD rats which were aged 6-8 weeks and weighed 200-250 g were purchased from Beijing Vital River Laboratory Animal Technology Co., Ltd. In order to induce diabetes, the rats fasted overnight. Streptozotocin (STZ) (US, sigma, S0130-1G) (65 mg/kg) was dissolved in the citric acid buffer solution (0.1 M citric acid and 0.1 M sodium citrate) and single injected intraperitoneally into the abdominal cavity of the rats. The control group was administrated with an equal volume of the mediator-sodium citrate buffer (pH 4.5). Three days after the STZ injection, SD rats whose fasting-blood glucose (FPG) was greater than or equal to 300 mg/dL measured by Roche glucometer (Roche, Shanghai, China, LKBIO1500) were considered to have diabetes and used in follow-up experiments (FIG. 10).
After the construction of the diabetic model. […]

[3] = tested on: TNF-α; assay: Immunohistochemistry of TNF-α in vascular tissue around the fistula; type: in vivo, rat; details: 1 mg/kg/day i.p., vs DM group (FIG. 13)
Procedure: as §1

[4] = tested on: MCP-1; assay: Western blot of MCP-1 in vascular endothelial cells from rat AVF tissue; type: in vivo; details: vascular endothelial cells isolated from rat AVF tissue, 1 mg/kg/day i.p. (FIG. 14D, 14G)
Procedure: (§3) After the experiment was finished, the AVF tissues of the rats were collected and digested with enzymes to separate vascular endothelial cells. The vascular endothelial cells were lysed with the mixture liquid of RIPA lysis buffer and the phosphatase inhibitor and centrifuged to collect the supernatant. The protein concentration was measured, and the protein samples were prepared. Electrophoresis was carried out, and the membrane was transferred at 260 mA for 60 minutes. The transferred PVDF membranes were soaked with TBST buffer containing 5% skimmed milk powder, blocked at room temperature at a rotation rate of 60 rpm for 1 hour, and gently washed with TBST buffer 3 times, each time lasting 8-10 minutes. The corresponding diluents of primary antibodies (SMO, Cascpase3, TNF-α, MCP-1, and IL-6) were added, where the dilution ratio was determined according to the requirements of each antibody, and the PVDF membranes were incubated overnight in a shaker at 4° C. and cleaned with TBST buffer 3 times the next day, each time lasting 8-10 minutes. […] Development: Luminescent liquid A and liquid B were mixed according to the ratio of 1:1, the residual water on the PVDF membranes was gently absorbed with filter papers, the mixed luminescent liquid was uniformly dropped on the PVDF membranes, and the western blot results were analyzed on a gel imager.

[5] = tested on: IL-6; assay: Western blot of IL-6 in vascular endothelial cells from rat AVF tissue; type: in vivo; details: vascular endothelial cells isolated from rat AVF tissue, 1 mg/kg/day i.p. (FIG. 14D, 14E)
Procedure: as §3

[6] = tested on: MCP-1; assay: ELISA of MCP-1 in peripheral blood plasma of rats; type: in vivo, rat; details: 1 mg/kg/day i.p., vs DM group (FIG. 14B)
Procedure: (§4) Peripheral blood samples of rats were collected, and plasma was separated. The concentration of cytokines (TNF-α, MCP-1, and IL-6) in plasma was determined using an ELISA kit (Jiangsu Enzyme Immune Industrial Co., Ltd., China).
(§5) Weight and blood glucose of rats were measured every week during the experiment, peripheral blood was extracted at specific time points (0, 1, and 14 weeks) for analysis, and AVF tissues were isolated at the end of the experiment for further analysis.

[7] = tested on: MCP-1; assay: Western blot of MCP-1 in high glucose-treated HUVECs; type: cell-based, human; details: western blot (FIG. 7D, 7G)
[8] = tested on: MCP-1; assay: ELISA of MCP-1 in HUVEC culture supernatant; type: cell-based, human; details: HUVECs treated with 10 μM, ELISA (FIG. 8C)
Procedure: (§6) HUVECs were inoculated into a 6-well plate and treated with glucose of different concentrations. After 48 hours, the supernatant was collected, and the expression of inflammatory cytokines TNF-α, MCP-1. and IL-6 in the supernatant was detected using TNF-α, MCP-1 and IL-6 ELISA kits according to instructions of the kits, respectively.

[9] = tested on: IL-6; assay: ELISA of IL-6 in HUVEC culture supernatant; type: cell-based, human; details: HUVECs treated with 10 μM, ELISA (FIG. 8A)
Procedure: as §6

[10] = tested on: MCP-1; assay: Immunohistochemistry of MCP-1 in vascular tissue around the fistula; type: in vivo, rat; details: 1 mg/kg/day i.p., vs DM group (FIG. 13)
Procedure: as §1

[11] = tested on: TNF-α; assay: Western blot of TNF-α in vascular endothelial cells from rat AVF tissue; type: in vivo; details: vascular endothelial cells isolated from rat AVF tissue, 1 mg/kg/day i.p. (FIG. 14D, 14F)
Procedure: as §3

[12] = tested on: IL-6; assay: Immunohistochemistry of IL-6 in vascular tissue around the fistula; type: in vivo, rat; details: 1 mg/kg/day i.p., vs DM group (FIG. 13)
Procedure: as §1

[13] = tested on: SMO; details: HUVECs, high glucose; 10 μM; compared with Vis and Gla at the same dosage (FIG. 5A)
Procedure: (§8) The total RNA was extracted from HUVECs by the Trizol method. The cDNA was synthesized using Evo M-MLV RT Premix premix for qPCR. Fluorescence quantitative PCR was carried out using gene-specific primers (Table 1) and SYBR® Green Premix Pro Taq HS qPCR Kit. The relative mRNA expression quantity was calculated by 2^−ΔΔCT method.

[14] = tested on: PECs; assay: Apoptosis detection in cultured PECs under high glucose; type: cell-based; details: high glucose conditions (FIG. 6E)
[15] = tested on: IL-6; assay: Western blot of IL-6 in high glucose-treated HUVECs; type: cell-based, human; details: western blot (FIG. 7D, 7E)
[16] = tested on: SMO; assay: Immunohistochemistry of SMO in vascular tissue around the fistula; type: in vivo, rat; details: 1 mg/kg/day i.p., vs DM group (FIG. 13)
Procedure: as §1

[17] = tested on: TNF-α; assay: Western blot of TNF-α in high glucose-treated HUVECs; type: cell-based, human; details: western blot (FIG. 7D, 7F)
[18] = tested on: TNF-α; assay: ELISA of TNF-α in peripheral blood plasma of rats; type: in vivo, rat; details: 1 mg/kg/day i.p., vs DM group (FIG. 14A)
Procedure: as §4, §5

[19] = tested on: HUVECs; assay: Lactate dehydrogenase (LDH) assay in HUVECs under high glucose; type: cell-based, human; details: HG, after intervention with Cyc (FIG. 6C)
Procedure: HUVECs were inoculated in a 6-well plate (1×10^6 cells/well) and treated in different glucose conditions. After 48 hours of culture, the supernatant was collected, and the LDH activity was analyzed using an LDH cytotoxicity assay kit.

[20] = tested on: TNF-α; assay: ELISA of TNF-α in HUVEC culture supernatant; type: cell-based, human; details: HUVECs treated with 10 μM, ELISA (FIG. 8B)
Procedure: as §6

[21] = tested on: IL-6; details: HUVECs
Procedure: as §8

[22] = tested on: HUVECs; assay: Apoptosis detection (AnnexinV-FITC/PI) in HUVECs under high glucose; type: cell-based, human; details: high glucose conditions (FIG. 6D)
Procedure: HUVECs were inoculated into a 6-well plate and treated with different concentrations of glucose. After 48 hours of culture, the cells were collected, washed twice with cold PBS, and suspended to 1×10^6 cells/mL with a labeling buffer (1×), and 5 μL of AnnexinV-FITC and 5 μL of propidium iodide (PI) were added. The cells were mixed evenly and incubated at room temperature away from light for about 15 minutes. 300 μL of labeling buffer was added to each tube, and samples were loaded within 1 hour. Annexin-V and PI were used to label early and late apoptotic cells, respectively. […] PI is a kind of nucleic acid dye, cannot penetrate the whole cell membrane, but can penetrate the cell membrane of cells in the middle and late apoptosis and dead cells to stain the nucleus.

[23] = tested on: MCP-1; details: HUVECs
Procedure: as §8

[24] = tested on: SMO; assay: Western blot of SMO in vascular endothelial cells from rat AVF tissue; type: in vivo; details: vascular endothelial cells isolated from rat AVF tissue, 1 mg/kg/day i.p. (FIG. 14D, 14H)
Procedure: as §3

[25] = tested on: IL-6; assay: ELISA of IL-6 in peripheral blood plasma of rats; type: in vivo, rat; details: 1 mg/kg/day i.p., vs DM group (FIG. 14C)
Procedure: as §4, §5

[26] = Blood glucose level of diabetic AVF rats; type: in vivo, rat; details: 1 mg/kg/day intraperitoneal, DM+Cyc vs DM group (FIG. 10)
Procedure: as §2
(§7) After the construction of the diabetic model. SD rats were used to construct the AVF model. Rats were anesthetized by intraperitoneal injection of chloral hydrate (0.3 mL/100 g) and placed on the operating table during the operation. […]
as §5

[27] = tested on: diabetic AVF rats; assay: Ultrasonic examination of AVF in diabetic AVF rats; type: in vivo, rat; details: 1 mg/kg/day i.p.
Procedure: as §2
After the construction of the diabetic model. SD rats were used to construct the AVF model. Rats were anesthetized by intraperitoneal injection of chloral hydrate (0.3 mL/100 g) and placed on the operating table during the operation. The iliac vascular area was exposed by cutting a 3 cm incision along the left inguinal fold and retracting abdominal muscle tissue and other soft tissue. The operation was carried out under a microscope, and the iliac artery and vein were separated from the surrounding fascia and nerves.

[28] = tested on: TNF-α; details: HUVECs
Procedure: as §8

[29] = Body weight of diabetic AVF rats; type: in vivo, rat; details: 1 mg/kg/day intraperitoneal, DM+Cyc vs DM group (FIG. 9)
Procedure: as §2, §7, §5

## CC1=C2C[C@H]3[C@@H](CC=C4C[C@@H](O)CC[C@@]43C)[C@@H]2CC[C@]12O[C@@H]1C[C@H](C)CN[C@H]1[C@H]2C [Cyc, Cyclopamine]
[1]
  expression level of Cleaved caspase 3 (immunohistochemistry): significantly inhibited
[2]
  intima of blood vessels: improved
  lumen of blood vessels: significantly enlarged
[3]
  expression level of TNF-α (immunohistochemistry): significantly inhibited
[4]
  expression level of MCP-1 (western blot): significantly reduced
[5]
  expression level of IL-6 (western blot): significantly reduced
[6]
  MCP-1 in plasma: significantly reduced
[7]
  expression of MCP-1 at protein level: inhibit
[8]
  level of MCP-1 in cell culture supernatant: decreased
[9]
  level of IL-6 in cell culture supernatant: decreased
[10]
  expression level of MCP-1 (immunohistochemistry): significantly inhibited
[11]
  expression level of TNF-α (western blot): significantly reduced
[12]
  expression level of IL-6 (immunohistochemistry): significantly inhibited
[13]
  inhibiting the expression of SMO: best effect
[14]
  apoptosis of cultured PECs: significantly reduced
[15]
  expression of IL-6 at protein level: inhibit
[16]
  expression level of SMO (immunohistochemistry): significantly inhibited
[17]
  expression of TNF-α at protein level: inhibit
[18]
  TNF-α in plasma: significantly reduced
[19]
  LDH in HUVECs: reduced
[20]
  level of TNF-α in cell culture supernatant: decreased
[21]; glucose 5.5-40 mM (FIG. 7A)
  expression of IL-6 at mRNA level: inhibit
[21]; high glucose, 10 μM, compared with Vis and Gla at the same dosage (FIG. 5C)
  inhibiting the expression of IL-6: best effect
[22]
  apoptosis of HUVECs: significantly reduced
[23]; glucose 5.5-40 mM (FIG. 7C)
  expression of MCP-1 at mRNA level: inhibit
[23]; high glucose, 10 μM, compared with Vis and Gla at the same dosage (FIG. 5E)
  inhibiting the expression of MCP-1: best effect
[24]
  expression level of SMO (western blot): significantly reduced
[25]
  IL-6 in plasma: significantly reduced
[26]
  blood glucose level: lower than that of the DM group
[27]; color Doppler ultrasound near AVF anastomotic stoma, DM+Cyc vs untreated DM group (FIG. 11A)
  blood flow: faster
[27]; ultrasound at AVF anastomosis, DM+Cyc vs untreated group (FIG. 11B)
  diameter of blood vessels in the fistula: increased significantly
[28]; glucose 5.5-40 mM (FIG. 7B)
  expression of TNF-α at mRNA level: inhibit
[28]; high glucose, 10 μM, compared with Vis and Gla at the same dosage (FIG. 5D)
  inhibiting the expression of TNF-α: best effect
[29]
  body weight: remained stable over time

From patent US20240058311A1, “USE OF SMO INHIBITOR IN PREPARATION OF DRUG FOR PREVENTING, DELAYING OR A[…] STENOSIS OF ART[…]” (JINAN UNIVERSITY, priority 2022, published 2024)
